Results reported in article PMC8143342, “β-Ionone Attenuates Dexamethasone-Induced Suppression of Collagen and Hyaluronic Acid Synthesis in Human Dermal Fibroblasts” (Biomolecules, 2021).

Target: T1, glucocorticoid receptor (GR) (Homo sapiens, UniProt P04150)
T1 construct: gene NR3C1; full-length GR
T1 sequence (P04150 1-777): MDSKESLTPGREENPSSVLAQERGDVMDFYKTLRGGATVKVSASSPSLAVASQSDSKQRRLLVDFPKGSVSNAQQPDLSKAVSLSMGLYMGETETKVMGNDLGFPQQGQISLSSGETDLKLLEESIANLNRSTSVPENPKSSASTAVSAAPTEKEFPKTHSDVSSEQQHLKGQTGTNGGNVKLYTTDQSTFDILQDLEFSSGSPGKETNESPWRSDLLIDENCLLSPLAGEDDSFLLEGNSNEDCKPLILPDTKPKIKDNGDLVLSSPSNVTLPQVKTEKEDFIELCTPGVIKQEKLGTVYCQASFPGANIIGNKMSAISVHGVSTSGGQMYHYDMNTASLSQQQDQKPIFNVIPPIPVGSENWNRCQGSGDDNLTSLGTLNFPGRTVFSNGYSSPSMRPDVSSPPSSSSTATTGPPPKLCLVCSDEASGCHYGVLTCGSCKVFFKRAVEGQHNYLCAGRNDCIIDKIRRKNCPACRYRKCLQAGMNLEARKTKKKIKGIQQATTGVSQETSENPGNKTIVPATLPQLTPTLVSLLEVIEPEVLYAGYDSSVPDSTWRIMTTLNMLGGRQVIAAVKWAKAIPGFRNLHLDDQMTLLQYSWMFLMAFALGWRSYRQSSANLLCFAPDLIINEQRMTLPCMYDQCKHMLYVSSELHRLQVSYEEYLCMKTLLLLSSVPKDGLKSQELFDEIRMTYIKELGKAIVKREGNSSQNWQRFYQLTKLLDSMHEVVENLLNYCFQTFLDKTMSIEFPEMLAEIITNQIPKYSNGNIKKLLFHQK
Assay: fluorescence polarization competition with fluorescent glucocorticoid ligand (PolarScreen GR Competitor Assay), purified GR
Assay type: binding

CC(=O)/C=C/C1=C(C)CCCC1(C)C [β-ionone]
IC50: 66.1 µM
